This note sets out measurements from US7410980B2, “Crystals of taxane derivative and process for their production” (Daiichi Pharmaceutical Co., Ltd., priority 2001, dated 2008).

A short description of the data set: moisture absorption behavior (microbalance, automatic moisture adsorption apparatus). It counts as physicochemical. Here is the method: Moisture absorption behaviors of the crystals of the present invention (β crystals) and an amorphous substance were measured under relative humidity of from 30 to 90%. Each sample of about 20 mg was used and the relative humidity was changed from 30% with 10% pitch by using a microbalance (automatic moisture adsorption apparatus). The measurement temperature was 25° C. An amount of the change was determined when the sample gave the change of 0.03% or less for 30 minutes (maximum retention time: 180 minutes).

In the case of `CC(=O)O[C@@]12CO[C@@H]1CC[C@@]1(C)[C@@H]3O[C@H](CN(C)C)O[C@@H]3C3=C(C)[C@@H](OC(=O)[C@H](O)[C@@H](NC(=O)OC(C)(C)C)c4ncccc4F)C[C@@](O)([C@@H](OC(=O)c4ccccc4)[C@@H]12)C3(C)C` [β crystals, (1S,2S,3R,4S,5R,8R,9S,10R,13S)-4-acetoxy-2-benzoyloxy-9,10-[(1S)-2-(dimethylamino)ethylidenedioxy]-5,20-epoxy-1-hydroxytax-11-en-13-yl (2R,3S)-3-(tert-butoxycarbonylamino)-3-(3-fluoro-2-pyridyl)-2-hydroxypropionate], the hygroscopicity entry (compared with amorphous substance, as shown in the examples) is on record as “lower than that of an amorphous substance”. Consider `CC(=O)O[C@@]12CO[C@@H]1CC[C@@]1(C)[C@@H]3O[C@H](CN(C)C)O[C@@H]3C3=C(C)[C@@H](OC(=O)[C@H](O)[C@@H](NC(=O)OC(C)(C)C)c4ncccc4F)C[C@@](O)([C@@H](OC(=O)c4ccccc4)[C@@H]12)C3(C)C` [amorphous substance, (1S,2S,3R,4S,5R,8R,9S,10R,13S)-4-acetoxy-2-benzoyloxy-9,10-[(1S)-2-(dimethylamino)ethylidenedioxy]-5,20-epoxy-1-hydroxytax-11-en-13-yl (2R,3S)-3-(tert-butoxycarbonylamino)-3-(3-fluoro-2-pyridyl)-2-hydroxypropionate], for which, for the setting “under high humidity, relative humidity 30 to 90%, 25° C., about 20 mg sample”, the “additional moisture absorbed as compared to the crystals of the present invention (β crystals)” value is recorded as “about 1%”.
